Assay results: patent US8822449B2, “Substituted aminoindanes and analogs thereof, and the pharmaceutical use thereof” (Sanofi, priority 2008, dated 2014)

target: T1, sodium-proton exchanger of subtype 3 (NHE3) (Homo sapiens, UniProt P48764); assay: Recovery of intracellular pH (pHi) after acidification in LAP1 cells stably expressing NHE3 (BCECF fluorescence, FLIPR); format: cell-based; details: LAP1 cells stably expressing NHE3; pH recovery after acidification; range 1 is % inhibition at 10 μM; read-out: Activity range (inhibitory effect on NHE3)
T1 construct: expressed in transfected cells
T1 sequence (P48764 26-834): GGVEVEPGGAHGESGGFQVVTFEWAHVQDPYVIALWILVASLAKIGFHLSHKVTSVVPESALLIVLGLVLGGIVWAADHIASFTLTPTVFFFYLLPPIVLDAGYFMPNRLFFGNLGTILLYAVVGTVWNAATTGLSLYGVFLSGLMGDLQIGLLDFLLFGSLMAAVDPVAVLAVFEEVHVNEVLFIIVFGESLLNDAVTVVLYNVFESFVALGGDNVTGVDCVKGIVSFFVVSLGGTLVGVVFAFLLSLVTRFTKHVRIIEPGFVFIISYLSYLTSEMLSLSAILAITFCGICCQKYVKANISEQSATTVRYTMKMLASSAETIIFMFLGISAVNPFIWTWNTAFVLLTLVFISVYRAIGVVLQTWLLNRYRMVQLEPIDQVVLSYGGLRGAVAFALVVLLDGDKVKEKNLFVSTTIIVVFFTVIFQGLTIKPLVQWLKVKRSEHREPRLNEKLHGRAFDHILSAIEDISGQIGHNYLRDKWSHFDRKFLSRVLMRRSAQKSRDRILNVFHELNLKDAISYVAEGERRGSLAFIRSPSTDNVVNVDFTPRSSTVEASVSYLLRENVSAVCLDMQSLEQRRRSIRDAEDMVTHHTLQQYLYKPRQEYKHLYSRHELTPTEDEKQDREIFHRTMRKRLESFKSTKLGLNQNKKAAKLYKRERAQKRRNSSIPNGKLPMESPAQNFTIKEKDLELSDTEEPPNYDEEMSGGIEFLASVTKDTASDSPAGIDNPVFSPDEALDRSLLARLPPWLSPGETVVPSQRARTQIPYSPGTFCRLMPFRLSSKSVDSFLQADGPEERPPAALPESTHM

| Structure (SMILES) | IC50 | inhibition at 10 µM |
| --- | --- | --- |
| CCc1nnc(C(C)C)n1-c1ccc(O[C@H]2c3cc(Cl)cc(Cl)c3C[C@@H]2N2CC[C@@H](O)C2)cc1 [Example 716, (R)-1-{trans-(1S,2S)-4,6-Dichloro-1-[4-(3-ethyl-5-isopropyl-[1,2,4]triazol-4-yl)-phenoxy]-indan-2-yl}-pyrrolidin-3-ol] | < 1000 nM | – |
| CC1(C)OC(=O)N(c2ccc(Cl)c(O[C@H]3c4cc(Cl)cc(Cl)c4C[C@@H]3N3CC[C@@H](O)C3)c2)C1=O [Example 432, 3-{4-chloro-3-[(1S,2S)-4,6-dichloro-2-((R)-3-hydroxypyrrolidin-1-yl)indan-1-yloxy]phenyl}-5,5-dimethyloxazolidine-2,4-dione] | 1000 to 10000 nM | – |
| Cc1nnc(C)n1-c1ccc(O[C@H]2c3cc(Cl)cc(Cl)c3C[C@@H]2N2CC[C@@H](O)C2)cc1 [Example 133, (R)-1-{trans-(1S,2S)-4,6-dichloro-1-[4-(3,5-dimethyl-[1,2,4]triazol-4-yl)phenoxy]indan-2-yl}pyrrolidin-3-ol] | < 1000 nM | – |
| Cn1ccn(-c2ccc(Cl)c(O[C@H]3c4cc(Cl)cc(Cl)c4C[C@@H]3N3CC[C@@H](O)C3)c2)c1=O [Example 335, 1-{4-chloro-3-[(1S,2S)-4,6-dichloro-2-((R)-3-hydroxypyrrolidin-1-yl)indan-1-yloxy]phenyl}-3-methyl-1,3-dihydroimidazol-2-one] | < 1000 nM | – |
| CS(=O)(=O)c1ccc(O[C@H]2c3cc(Cl)cc(Cl)c3C[C@@H]2N2CCC(S(C)(=O)=O)C2)cc1 (mixture of isomers) [Example 249, 1-[(1S,2S)-4,6-dichloro-1-(4-methanesulfonylphenoxy)indan-2-yl]-3-methanesulfonylpyrrolidine] | – | 20 to 50% |
| Cc1c(O[C@H]2c3cc(Cl)cc(F)c3C[C@@H]2N2CC[C@@H](O)C2)ccc(-n2c(C)nnc2C)c1C [Example 141, (R)-1-{trans-(1S,2S)-6-chloro-1-[4-(3,5-dimethyl-[1,2,4]triazol-4-yl)-2,3-dimethylphenoxy]-4-fluoroindan-2-yl}pyrrolidin-3-ol] | < 1000 nM | – |
| CC(C)(C)N[C@H]1Cc2ccccc2[C@@H]1Oc1ccc(S(C)(=O)=O)cc1 (racemic) [Example 701, tert-butyl-[1-(4-methanesulfonylphenoxy)indan-2-yl]amine] | 1000 to 10000 nM | – |
| CS(=O)(=O)c1nccn1-c1ccc(O[C@H]2c3cc(Cl)cc(Cl)c3C[C@@H]2N2CC[C@@H](O)C2)c(F)c1 [Example 739, (R)-1-{trans-(1S,2S)-4,6-Dichloro-1-[2-fluoro-4-(2-methanesulfonyl-imidazol-1-yl)-phenoxy]-indan-2-yl}-pyrrolidin-3-ol] | < 1000 nM | – |
| O=C1CNC(=O)N1c1ccc(F)c(O[C@H]2c3cc(Cl)cc(Cl)c3C[C@@H]2N2CC[C@@H](O)C2)c1 [Example 417, 3-{3-[(1S,2S)-4,6-dichloro-2-((R)-3-hydroxypyrrolidin-1-yl)indan-1-yloxy]-4-fluorophenyl}imidazolidine-2,4-dione] | 1000 to 10000 nM | – |
| CS(=O)(=O)c1ccc(O[C@H]2c3cc(Cl)ccc3C[C@@H]2N2CCN(CCO)CC2)cc1 (racemic) [Example 384, 2-{4-[rac-trans-(1,2)-6-chloro-1-(4-methanesulfonylphenoxy)indan-2-yl]piperazin-1-yl}-ethanol] | – | 20 to 50% |
| CS(=O)(=O)c1ccc(O[C@H]2c3cc(Cl)cc(Cl)c3C[C@@H]2CN2CCCC2)cc1 (racemic) [Example 280, trans-4,6-dichloro-1-(4-methylsulfonyl-phenyloxy)-2-pyrrolidinylmethylindane] | 1000 to 10000 nM | – |
| CS(=O)(=O)c1ccc(N[C@H]2c3cc(Cl)cc(Cl)c3C[C@@H]2N2CC[C@@H](O)C2)cc1 [Example 26, (R)-1-[(1S,2S)-4,6-dichloro-1-(4-methanesulfonylphenylamino)indan-2-yl]pyrrolidin-3-ol] | 1000 to 10000 nM | – |
| O=S(=O)(NCC(F)(F)F)c1ccc(O[C@@H]2c3ccccc3C[C@H]2N2CCCC2)cc1 (racemic) [Example 469, 4-(rac-trans-(1,2)-2-pyrrolidin-1-ylindan-1-yloxy)-N-(2,2,2-trifluoroethyl)benzenesulfonamide] | 1000 to 10000 nM | – |

Next, values leading:

| IC50 | inhibition at 10 µM | Structure (SMILES) |
| --- | --- | --- |
| < 1000 nM | – | O=c1[nH]ccn1-c1cccc(O[C@@H]2c3ccccc3C[C@H]2N2CCCC2)c1 (racemic) [Example 254, 1-[3-(rac-trans-(1,2)-2-pyrrolidin-1-ylindan-1-yloxy)phenyl]-1,3-dihydroimidazol-2-one] |
| 1000 to 10000 nM | – | N[C@@H]1CCCN([C@H]2CCc3ccccc3[C@@H]2Oc2cccc(-n3cnnn3)c2)C1 (racemic) [Example 60, (R)-1-[rac-trans-(1,2)-1-(3-tetrazol-1-ylphenoxy)-1,2,3,4-tetrahydronaphthalen-2-yl]piperidin-3-ylamine] |
| < 1000 nM | – | CC(=O)Nc1cccc(O[C@H]2c3cc(Cl)cc(Cl)c3C[C@@H]2N2CCC[C@@H](N(C)C)C2)c1 [Example 694, N-{3-[trans-(1S,2S)-4,6-dichloro-2-((R)-3-dimethylaminopiperidin-1-yl)indan-1-yloxy]phenyl}acetamide] |
| 1000 to 10000 nM | – | CCOC(=O)c1ncoc1-c1ccc(O[C@H]2c3ccccc3CC[C@@H]2N2CCC[C@H](N)C2)cc1 (racemic) [Example 584, 5-{4-[rac-trans-(1,2)-2-((S)-3-aminopiperidin-1-yl)-1,2,3,4-tetrahydronaphthalen-1-yloxy]phenyl}oxazole-4-carboxylic acid ethyl ester] |
| – | 20 to 50% | N[C@@H]1CCCN([C@H]2CCc3ccccc3[C@@H]2Oc2ccc(F)c(F)c2)C1 (racemic) [Example 51, (R)-1-[rac-trans-(1,2)-1-(3,4-difluorophenoxy)-1,2,3,4-tetrahydronaphthalen-2-yl]piperidin-3-ylamine] |
| 1000 to 10000 nM | – | N#Cc1ccc(O[C@@H]2c3ccccc3C[C@H]2N2CCC[C@@H](N)C2)cc1Cl (racemic) [Example 521, 4-[rac-trans-(1,2)-2-((R)-3-aminopiperidin-1-yl)indan-1-yloxy]-2-chlorobenzonitrile] |
| 1000 to 10000 nM | – | NS(=O)(=O)c1ccc(O[C@H]2c3ccccc3C[C@@H]2CN2CCCC2)c(F)c1 (racemic) [Example 452, 3-fluoro-4-(2-pyrrolidin-1-ylmethylindan-1-yloxy)benzenesulfonamide] |
| – | 20 to 50% | Cc1c(Cl)cccc1O[C@H]1c2ccccc2CC[C@@H]1N1CCC[C@H](N)C1 (racemic) [Example 160, (S)-1-[rac-trans-(1,2)-1-(3-chloro-2-methylphenoxy)-1,2,3,4-tetrahydronaphthalen-2-yl]piperidin-3-ylamine] |
| – | 20 to 50% | N[C@H]1CCCN([C@H]2CCc3ccccc3[C@@H]2Oc2ccccc2OC(F)(F)F)C1 (racemic) [Example 159, (S)-1-[rac-trans-(1,2)-1-(2-trifluoromethoxyphenoxy)-1,2,3,4-tetrahydronaphthalen-2-yl]piperidin-3-ylamine] |
| 1000 to 10000 nM | – | CN(C1CCNCC1)[C@@H]1Cc2ccccc2[C@H]1Oc1cccc(N2CCNCC2)c1 (racemic) [Example 629, methyl-[rac-trans-(1,2)-1-(3-piperazin-1-ylphenoxy)indan-2-yl]piperidin-4-ylamine] |
| – | 20 to 50% | N[C@@H]1CCCN([C@H]2CCc3ccccc3[C@@H]2Oc2ccnc(Cl)c2)C1 (racemic) [Example 40, (R)-1-[rac-trans-(1,2)-1-(2-chloropyridin-4-yloxy)-1,2,3,4-tetrahydronaphthalen-2-yl]piperidin-3-ylamine] |
| 1000 to 10000 nM | – | CS(=O)(=O)c1ccccc1O[C@H]1c2cc(Cl)cc(Cl)c2C[C@@H]1N1CCNCC1 [Example 246, 1-[(1S,2S)-4,6-dichloro-1-(2-methanesulfonylphenoxy)indan-2-yl]piperazine] |
| 1000 to 10000 nM | – | NS(=O)(=O)c1ccc(O[C@@H]2c3ccccc3C[C@H]2NC2CCCCCC2)c(F)c1 (racemic) [Example 713, 4-(rac-trans-(1,2)-2-Cycloheptylamino-indan-1-yloxy)-3-fluoro-benzenesulfonamide] |
| 1000 to 10000 nM | – | N[C@@H]1CCCN([C@@H]2Cc3ccccc3[C@H]2Oc2ccncc2)C1 (racemic) [Example 86, (R)-1-[rac-trans-(1,2)-1-(pyridin-4-yloxy)indan-2-yl]piperidin-3-ylamine] |
| – | 20 to 50% | Cc1cc2c(O[C@H]3c4ccccc4CC[C@@H]3N3CCOCC3)cccc2[nH]1 (racemic) [Example 399, 2-methyl-4-(rac-trans-(1,2)-2-morpholin-4-yl-1,2,3,4-tetrahydronaphthalen-1-yloxy)-1H-indole] |
| – | 20 to 50% | CS(=O)(=O)c1ccc(O[C@H]2c3cc(Cl)cc(Cl)c3C[C@@H]2N2CCN3CCC[C@H]3C2)cc1 [Example 208, (S)-2-[(S)-4-(S)-chloro-6-chloro-1-(4-methanesulfonylphenoxy)indan-2-yl]octahydropyrrolo[1,2-a]pyrazine] |
| 1000 to 10000 nM | – | NC1CCN([C@@H]2Cc3ccccc3[C@H]2Oc2ccc(NC(=O)OCc3ccccc3)cc2)C1 (mixture of isomers) [Example 241, {4-[rac-trans-(1,2)-2-(3-aminopyrrolidin-1-yl)indan-1-yloxy]phenyl}carbamic acid benzyl ester] |
